In data set [1] the target is T1, leptin receptor (Homo sapiens, UniProt P48357).
T1 construct: purchased R&D Systems
T1 sequence (P48357 22-1165): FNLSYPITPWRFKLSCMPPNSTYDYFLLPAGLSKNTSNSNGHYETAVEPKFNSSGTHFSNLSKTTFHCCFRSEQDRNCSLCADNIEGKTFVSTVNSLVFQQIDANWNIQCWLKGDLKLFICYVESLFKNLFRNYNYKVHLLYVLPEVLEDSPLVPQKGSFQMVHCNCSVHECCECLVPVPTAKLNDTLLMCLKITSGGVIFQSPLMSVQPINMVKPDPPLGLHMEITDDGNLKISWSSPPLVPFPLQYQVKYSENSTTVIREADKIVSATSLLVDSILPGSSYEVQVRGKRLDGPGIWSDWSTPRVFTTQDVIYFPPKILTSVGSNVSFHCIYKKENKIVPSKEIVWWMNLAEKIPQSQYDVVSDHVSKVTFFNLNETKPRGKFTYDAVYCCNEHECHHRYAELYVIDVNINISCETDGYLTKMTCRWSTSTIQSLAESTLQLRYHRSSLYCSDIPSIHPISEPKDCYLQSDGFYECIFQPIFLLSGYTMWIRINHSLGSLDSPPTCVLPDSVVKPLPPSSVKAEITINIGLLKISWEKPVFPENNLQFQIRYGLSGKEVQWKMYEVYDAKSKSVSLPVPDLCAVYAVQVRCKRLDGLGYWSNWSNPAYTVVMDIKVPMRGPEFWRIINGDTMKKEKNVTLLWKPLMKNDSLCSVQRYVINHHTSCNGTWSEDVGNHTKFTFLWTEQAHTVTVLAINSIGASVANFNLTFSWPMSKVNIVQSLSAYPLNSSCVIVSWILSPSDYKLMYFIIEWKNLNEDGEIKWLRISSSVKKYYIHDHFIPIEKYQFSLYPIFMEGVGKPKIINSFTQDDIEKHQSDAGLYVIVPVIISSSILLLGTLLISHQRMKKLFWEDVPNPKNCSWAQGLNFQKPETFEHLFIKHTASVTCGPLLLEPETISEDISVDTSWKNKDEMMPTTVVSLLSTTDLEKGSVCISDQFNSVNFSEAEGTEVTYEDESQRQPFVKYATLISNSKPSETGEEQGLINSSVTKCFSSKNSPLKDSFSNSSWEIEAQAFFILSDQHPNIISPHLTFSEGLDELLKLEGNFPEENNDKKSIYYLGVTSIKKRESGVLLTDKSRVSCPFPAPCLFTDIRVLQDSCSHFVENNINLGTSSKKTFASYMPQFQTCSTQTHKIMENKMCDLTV
Nature of the data set: SPR biosensor binding of peptide to immobilized leptin receptor. The following applies: for kon: read-out: association constant (Ka). As for the experimental part: The direct binding of diLep9R3LC or Lep9R3LC to the target was evaluated using a dual-channel surface plasmon resonance (SPR) instrument (Reichert SR7500DC system, Depew, NY). The process of immobilizing the leptin receptor protein (R&D Systems, Minneapolis, MN) onto the sensor chip surface was accomplished using free amine coupling through an 1-ethyl-3-(3-dimethylaminopropyl) carbodiimide hydrochloride (EDC)/N-hydroxysuccinimide (NHS) reaction. The process of the EDC/NHS reaction involves injecting a mixture containing 0.1 M EDC and 0.05 M NHS. Subsequently, the remaining activated carboxyl groups were quenched with 1 M ethanolamine at pH 6.0. All dilutions of the working peptides were prepared in the running buffer (PBS with 1% DMSO) and injected for 3 min (association time) at a flow rate of 50 μl/min followed by a dissociation phase of 3 min. Nonspecific background binding was subtracted from each sensogram using SPR_V4017 Data Acquisition and Alignment Program (Reichert, Depew, NY). Binding rates and constants were independent of flow rate over a wide range. Best-fit kinetic parameters were obtained by global fitting analysis using Scrubber2 (Biologic Software, Australia).
(In general: Surface plasmon resonance follows binding to a sensor surface in real time, without labels.)

Data set [2] deals with N2a cells.
A further data set relates to SOD1. Nature of the data set: SOD1 gene silencing in mouse organs and brain regions, qPCR. The format is in vivo, mice. The following applies: 400 pmol siSOD1, 100 μg peptide, tail vein, daily for 3 d, n = 8. As for the experimental part: All procedures were performed in compliance with guidelines and protocols approved by the Institutional Animal Care and Use Committee (IACUC) of Hanyang University. The Balb/c mice were used to test the in vivo delivery of complexed particles to the brain. To ascertain ligand-receptor-mediated delivery of diLep9R3LC:siRNA, the leptin-receptor-deficient (db/db, Jackson Laboratory, ME) strains were utilized. Further, to study therapeutic efficacy of siRNA in AD, 7-month-old male 3xTg (B6;129-Psen1tm1Mpm Tg (APPSwe,tauP301L)1Lfa/Mmjax) mice (Jackson Laboratory, ME) were used. These mice show AD-like pathological and physiological characteristics with respect to formation of Aβ plaques and tangled tau as well as abnormal behaviors. […] In all experiments, a group of control mice (n = 4) were also injected with DPBS (pH 7.4).
For quantitative polymerase chain reaction (qPCR), total RNA was extracted from N2a cells 24 h posttransfection and homogenized brain samples using the RNAiso kit (Takara, Kyoto, Japan). The RNA was quantified with SYBR premix Ex Taq perfect real time (Takara, Kyoto, Japan) with qPCR primers. In all cases, relative gene expression was calculated in comparison to normalized target mRNA levels in nontreated groups. […] All primers were synthesized from Cosmogenetech (Seoul, Korea), and sequences are depicted below.
(In general: In qPCR the cycle at which signal appears reflects the starting amount.)

The subject of data set [3] is N2a cells. As to the kind of experiment: Cytotoxicity, Cell Counting Kit-8 assay. The following applies: 24 h posttransfection, Cell Counting Kit-8, at tested weight ratio, with siSOD1 (Fig. 1G). On the technique in general: Tetrazolium dyes change colour on reduction, which living cells bring about.
The target of data set [4] is T2, leptin receptor (Mus musculus, UniProt P48356).
T2 chain: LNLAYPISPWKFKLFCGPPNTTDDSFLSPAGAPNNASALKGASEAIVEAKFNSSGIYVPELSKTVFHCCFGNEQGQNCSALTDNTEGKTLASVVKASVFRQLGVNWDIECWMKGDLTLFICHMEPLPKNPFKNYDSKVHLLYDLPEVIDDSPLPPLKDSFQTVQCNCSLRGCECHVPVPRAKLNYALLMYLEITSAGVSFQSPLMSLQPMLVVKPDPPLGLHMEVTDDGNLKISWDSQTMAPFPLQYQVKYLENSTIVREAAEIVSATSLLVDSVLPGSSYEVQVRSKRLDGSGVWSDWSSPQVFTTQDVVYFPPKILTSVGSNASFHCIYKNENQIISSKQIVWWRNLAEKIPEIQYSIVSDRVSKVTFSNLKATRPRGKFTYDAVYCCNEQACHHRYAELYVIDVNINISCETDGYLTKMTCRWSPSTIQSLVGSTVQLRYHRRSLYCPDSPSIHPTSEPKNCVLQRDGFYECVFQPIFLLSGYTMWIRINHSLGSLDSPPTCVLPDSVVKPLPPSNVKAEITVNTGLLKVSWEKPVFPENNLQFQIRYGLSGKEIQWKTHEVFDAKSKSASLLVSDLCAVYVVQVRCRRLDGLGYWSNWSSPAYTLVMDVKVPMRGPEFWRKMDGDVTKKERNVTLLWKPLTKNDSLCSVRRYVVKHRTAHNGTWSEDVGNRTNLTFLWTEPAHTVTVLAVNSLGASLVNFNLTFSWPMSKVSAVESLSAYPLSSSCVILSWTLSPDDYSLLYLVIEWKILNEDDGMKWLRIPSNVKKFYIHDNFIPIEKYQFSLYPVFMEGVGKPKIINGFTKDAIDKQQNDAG
As to the kind of experiment: SPR.

Read-outs that look alike come from different tables or passages of the source. Bridge positions count the residues as written; N and C are the ends. Ends that are not written are not given here. I, II: the chains in the order shown.

For the molecule “YQQVLTSLPSQNVLQIANDLENLRDLLHLLGGGGRRRRRRRRRLLLC [Lep9R3LC]”, the kon on leptin receptor [1] (SPR Reichert SR7500DC, amine-coupled receptor, running buffer PBS with 1% DMSO, 3 min association, 3 min dissociation, 50 μl/min, global fit Scrubber2) was 1100 M⁻¹ s⁻¹. Moreover, the Kd at leptin receptor [1] (SPR, leptin receptor immobilized, PBS with 1% DMSO, global fit, read-out: binding affinity (KD) (Kd/Ka)) was 1.38 µM. Besides, in the data set with N2a cells [2], the cytotoxicity entry is listed as “did not show any cytotoxicity”.
Consider “EVGQSDYSSYARTSIRASLTFGGGGRRRRRRRRRLLLC [scrambled9R, scrambled peptide, nontargeting control]”, for which, in the data set with SOD1, the “SOD1 silencing, brain” value was “not when used with scrambled peptide”.
On to “I: YQQVLTSLPSQNVLQIANDLENLRDLLHLLGGGGRRRRRRRRRLLLC / II: YQQVLTSLPSQNVLQIANDLENLRDLLHLLGGGGRRRRRRRRRLLLC (disulfide I:47-II:47) [diLep9R3LC]”, for which the kon at leptin receptor [1] was determined as 3300 M⁻¹ s⁻¹. Besides, the cytotoxicity entry with N2a cells [3] was “did not show any cytotoxicity”.
On to YQQVLTSLPSQNVLQIANDLENLRDLLHLLGGGGRRRRRRRRRLLLC [Lep9R3LC], for which the Kd in the data set with leptin receptor [4] came to 1.38 µM.
For YQQVLTSLPSQNVLQIANDLENLRDLLHLLGGGGRRRRRRRRRLLLC (also: disulfide-linked dimer via C-terminal Cys) [diLep9R3LC], the Kd with leptin receptor [4] came out at 0.462 µM.

The record behind these values is PMC11168191, “Systemic Treatment with siRNA Targeting Gamma-Secretase Activating Protein Inhibits Amyloid-β Accumulation in Alzheimer’s Disease” (Biomaterials Research, 2024).
